According to patent US12404252B2, “Salt of 2-amino-2-(2-(1-decyl-1H-1,2,3-triazol-4-yl)ethyl)propane-1,3-diol, and pharmaceutical composition containing same” (NEXTGEN BIOSCIENCE CO., LTD, priority 2021, dated 2025):
Values after ≈ are worked out from the molar mass of the structure shown. “Also recorded” adds a separate entry of the source.

Tests used:
[1] = Hygroscopicity test by DVS; type: physicochemical
Description: Dynamic vapor sorption (DVS) is a method that has been used for a long time to investigate the interactions between active pharmaceutical ingredients (APIs), and pharmaceutical preparations and water. Here, to analyze the water absorption rate of a sample at a specific temperature, measurements are made by exposing the sample to the desired relative humidity using a DVS water sorption analyzer (hygroscopicity analyzer) until the change in weight of the sample stabilizes.

[2] = Solubility in aqueous media (HPLC); type: physicochemical; details: for solubility at 24 h: thermodynamic from solid
Experimental: The solubility of Compound 1a prepared in Example 1 was evaluated in several different media, including pH 1.2 hydrochloric acid buffer, pH 3.0 citrate buffer, pH 4.7 acetate buffer, pH 6.8 phosphate buffer, simulated gastric fluid, fasted-state simulated intestinal fluid, fed-state simulated intestinal fluid, and water. About 2.17 mg of sample (based on the free base of Compound 1) for each medium was taken into a 2-mL transparent glass vial and […] of medium was added (constituents of the salt were considered Compound 1: counterion=1:0.5; target concentration: 2 mg/mL). The mixture was stirred using a magnetic stirrer at 250 RPM for 24 hours at 25° C. Next, the pH and appearance of the mixture were recorded and the mixture was filtered through a MultiScreen® HTS-HV 96-well plate (manufactured by Merck; 0.45-μm hydrophilic, low-protein-binding Durapore® membrane). Solubility was determined using HPLC, and a calibration curve was created by injecting a known concentration of Compound 1a. The filtered sample was injected (diluted appropriately as necessary) and the concentration of Compound 1a (mg/mL) in the filtrate was calculated from the calibration curve (taking salt coefficient into account). The analysis results are as follows.

[3] = Standard stock solution stability, 40° C./75±5% RH; type: physicochemical; details: 40° C./75% RH
Experimental: The stability of the crystalline compound was examined at 40° C./75±5% RH. Physical stability was examined through comparative XRPD analysis before and after the test, and chemical stability was examined by HPLC method. The experimental conditions used in the stability test for Compound 1a and the test results are as follows.
40° C./75±5% RH: Conditions in which the vial was open and upright.
A required amount (˜1 mg) of solid material was dissolved in 1 mL of a diluent (1:1 methanol/water), and the prepared solution was analyzed by HPLC.

[4] = pH stability and salinity stability, 40±2° C.; type: physicochemical
Experimental: pH and salinity stability tests for the hemifumirate salt of Compound 1 were performed at an initial target concentration of 2 mg/mL. The pH and salinity stability conditions used to evaluate the hemifumirate salt of Compound 1 and the evaluation results are as follows.
• 40±2° C.: Conditions in which the vial was capped and upright • Storage container for stability: 2-mL screw neck clear glass vial (manufactured by La-Pha-Pack) • Target concentration: ˜ 2 mg/mL (adding the sample to 1 mL of medium, followed by vortexing for 30 seconds) • 500 μL of the test mixture was dissolved in 500 μL of a diluent (1:1 methanol/water), and the prepared solution was analyzed by HPLC without filtration.

[5] = system: dextran sulfate sodium (DSS)-induced colitis model; test: DSS-induced colitis mouse model, disease activity index; type: in vivo; details: DSS mice
Experimental: The effectiveness of Compound 1a against inflammatory bowel disease was evaluated using the dextran sulfate sodium (DSS)-induced colitis model. In the mouse model, inflammatory bowel disease was induced by administering DSS to mice at a concentration of 2.5% via drinking water. Mice were divided into a test group administered Compound 1a, a positive control group administered ozanimod or MTX (methotrexate), a vehicle group, and a normal control group, and each group had n=10. Compound 1, a compound of the present invention, was orally administered at doses of 5 and 10 mg/kg once a day for 7 days to the inflammatory bowel disease-induced model, and ozanimod as a positive control was administered orally at a dose of 5 mg/kg once a day, and MTX (methotrexate) as a positive control was administered intraperitoneally at a dose of 3 mg/kg three times a week.
DAI represents the total score of weight loss relative to initial weight, stool consistency, and degree of intestinal bleeding of the mouse. The criteria for calculation of DAI are shown in Table 10 below, and DAI was evaluated on days 0, 1, 2, 3, 4, 5, 6, 7, and 8.

In the case of `CCCCCCCCCCn1cc(CCC(N)(CO)CO)nn1` [Compound 1a, 2-amino-2-(2-(1-decyl-1H-1,2,3-triazol-4-yl)ethyl) propane-1,3-diol], the “hygroscopicity (DVS evaluation, in words)” value ([1]; 90% RH, listed as Example 1) is reported as “very low hygroscopicity”, the “DVS remark (adsorption at 90% RH)” value ([1]; water adsorption at 90% RH, DVS) is reported as “less than 2%” and the Visual observation ([2]; 0.5% Methylcellulose, target 2 mg/mL) is reported as “Clear solution”. The solubility at 24 h ([2]; 25 °C, all of the aqueous media except phosphate buffer (pH 6.8)) was > 2000 µg/mL, the Visual observation ([2]; FaSSIF (pH 6.5), target 2 mg/mL) was “Clear solution” and the Visual observation ([2]; FeSSIF (pH 5.8), target 2 mg/mL) was “Clear solution”. For the same molecule, the Visual observation ([2]; SGF (pH 2.0), target 2 mg/mL) was “Clear solution”, the Visual observation ([2]; Water, target 2 mg/mL) was “Clear solution” and the solubility at 24 h ([2]; aqueous buffer, pH 3.0 Citrate buffer, 25° C., 24 hours, final pH 3.42) was > 2000 µg/mL. The solubility at 24 h ([2]; aqueous buffer, pH 4.7 Acetate buffer, 25° C., 24 hours, final pH 5.11) was > 2000 µg/mL, the solubility at 24 h ([2]; aqueous buffer, pH 6.8 Phosphate buffer, 25° C., 24 hours, final pH 6.94) was 306 µg/mL (≈ 0.937 mM) and the solubility at 24 h ([2]; aqueous with cosolvent or surfactant or cyclodextrin, 0.5% Methylcellulose, 25° C., 24 hours, final pH 6.04) was > 2000 µg/mL. The Visual observation ([2]; pH 1.2 HCl buffer, target 2 mg/mL) was “Clear solution”, the Visual observation ([2]; pH 3.0 Citrate buffer, target 2 mg/mL) was “Clear solution” and the Visual observation ([2]; pH 4.7 Acetate buffer, target 2 mg/mL) was “Clear solution”. For the same molecule, the Visual observation ([2]; pH 6.8 Phosphate buffer, target 2 mg/mL) was “White suspension”, the solubility at 24 h ([2]; simulated gastric fluid, SGF (pH 2.0), 25° C., 24 hours, final pH 3.02) was > 2000 µg/mL and the solubility at 24 h ([2]; simulated gastric fluid, pH 1.2 HCl buffer, 25° C., 24 hours, target 2 mg/mL, final pH 1.75) was > 2000 µg/mL. The solubility at 24 h ([2]; FaSSIF (pH 6.5), 25° C., 24 hours, final pH 6.60) was > 2000 µg/mL, the solubility at 24 h ([2]; FeSSIF (pH 5.8), 25° C., 24 hours, final pH 5.97) was > 2000 µg/mL and the solubility at 24 h ([2]; Water, 25° C., 24 hours, final pH 6.04) was > 2000 µg/mL. For the same molecule, the Purity % ([3]; 1-week) was 99.18%, the “XRPD (physical stability)” value ([3]; 1-week) was “Almost similar (some changes” and the “XRPD (physical stability)” value ([3]; 2-week) was “crystalline form was maintained; also recorded: Almost similar (some changes”. The Purity % ([3]; Initial) was 99.29%, the “XRPD (physical stability)” value ([3]; Initial) was “Crystalline” and the Purity % ([4]; SGF/40° C., 1-week) was 99.25%. The Purity % ([4]; SGF/40° C., 2-week) was 99.29%, the Purity % ([4]; SGF/40° C., Initial) was 99.13% and the Purity % ([4]; Saline (0.9% NaCl)/40° C., 1-week) was 99.05%. It also gave a Purity % ([4]; Saline (0.9% NaCl)/40° C., Initial) of 99.20%, a Purity % ([4]; pH 1.2 HCl buffer/40° C., 1-week) of 98.26% and a Purity % ([4]; pH 1.2 HCl buffer/40° C., 2-week) of 98.76%. For the same molecule, the Purity % ([4]; pH 1.2 HCl buffer/40° C., Initial) was 98.92%, the Purity % ([4]; pH 4.7 acetate buffer/40° C., 1-week) was 99.46% and the Purity % ([4]; pH 4.7 acetate buffer/40° C., 2-week) was 99.69%. The Purity % ([4]; pH 4.7 acetate buffer/40° C., Initial) was 99.23%, the Purity % ([4]; pH 6.8 phosphate buffer/40° C., 1-week) was 98.36% and the Purity % ([4]; pH 6.8 phosphate buffer/40° C., Initial) was 99.20%. For the same molecule, the “clinical indicators (weight loss, stool consistency, intestinal bleeding) versus ozanimod” value ([5]; 5 mg/kg orally) was “equivalent to or higher than those of ozanimod” and the “clinical indicators (weight loss, stool consistency, intestinal bleeding) versus ozanimod” value ([5]; 10 mg/kg orally) was “equivalent to or higher than those of ozanimod”.
